Reference: ChEMBL document CHEMBL1201862, “PubChem BioAssay data set” (2004)
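Where inhibition never reached the appropriate level, the endpoint shown equals the highest concentration tested. Otherwise, values were interpolated linearly from a five-concentration, 48-hour dose response in 96-well plates. GI50 marks 50% less growth.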 Active and inactive are the calls of the source. No stated cut-off is given here; in the data, active = GI50 up to about 1.1 µM and inactive = higher.

How the values were obtained:
Experiment in all cases: NCI-60 cell line screen, 48 h
T47D = system: T47D
BT-549 = system: BT-549
NCI/ADR-RES = system: NCI/ADR-RES
TK-10 = system: TK-10
HCT-15 = system: HCT-15
EKVX = system: EKVX
SNB-19 = system: SNB-19
HOP-92 = system: HOP-92
UACC-62 = system: UACC-62
SK-MEL-28 = system: SK-MEL-28
SK-MEL-2 = system: SK-MEL-2
HOP-62 = system: HOP-62
U-251 = system: U-251
OVCAR-3 = system: OVCAR-3
MOLT-4 = system: MOLT-4
NCI-H522 = system: NCI-H522
ACHN = system: ACHN
OVCAR-8 = system: OVCAR-8
NCI-H226 = system: NCI-H226
HT-29 = system: HT-29
RXF 393 = system: RXF 393
RPMI-8226 = system: RPMI-8226
KM12 = system: KM12
OVCAR-4 = system: OVCAR-4
CAKI-1 = system: CAKI-1
Hs-578T = system: Hs-578T
K562 = system: K562
SN12C = system: SN12C
CCRF-CEM = system: CCRF-CEM
IGROV-1 = system: IGROV-1
MDA-MB-435 = system: MDA-MB-435
Malme-3M = system: Malme-3M
OVCAR-5 = system: OVCAR-5
SK-OV-3 = system: SK-OV-3
HL-60 = system: HL-60
LOX IMVI = system: LOX IMVI
UACC-257 = system: UACC-257
MDA-MB-231 = system: MDA-MB-231
SF-295 = system: SF-295
NCI-H460 = system: NCI-H460
M14 = system: M14
UO-31 = system: UO-31
SW-620 = system: SW-620
786-0 = system: 786-0
SK-MEL-5 = system: SK-MEL-5
SF-268 = system: SF-268
A549 = system: A549
MDA-N = system: MDA-N
PC-3 = system: PC-3
HCT-116 = system: HCT-116
COLO 205 = system: COLO 205
MCF7 = system: MCF7
NCI-H23 = system: NCI-H23
DU-145 = system: DU-145
SNB-75 = system: SNB-75
SF-539 = system: SF-539
A498 = system: A498
SR = system: SR
HCC 2998 = system: HCC 2998

`COc1ccc(/C=C2\CN(C)Cc3c2nc(O)c(C#N)c3-c2ccc(OC)cc2)cc1` was tested, and the GI50 (T47D) was 80.4 µM (inactive), the GI50 (BT-549) was > 100 µM (inactive) and the GI50 (NCI/ADR-RES) was 56.2 µM (inactive). For the same compound, the GI50 (TK-10) was 43.4 µM (inactive), the GI50 (HCT-15) was 64.9 µM and the GI50 (EKVX) was > 100 µM (inactive). For the same compound, the GI50 (SNB-19) was 34.5 µM (inactive), the GI50 (HOP-92) was 25.2 µM (inactive) and the GI50 (UACC-62) was > 100 µM (inactive). The GI50 (SK-MEL-28) was > 100 µM (inactive), the GI50 (SK-MEL-2) was 94 µM (inactive) and the GI50 (HOP-62) was 51.2 µM (inactive). The GI50 (U-251) was 80.2 µM (inactive), the GI50 (OVCAR-3) was 54.1 µM (inactive) and the GI50 (MOLT-4) was 42 µM (inactive). The GI50 (NCI-H522) was 48.8 µM (inactive), the GI50 (ACHN) was > 100 µM (inactive) and the GI50 (OVCAR-8) was 31.3 µM (inactive). For the same compound, the GI50 (NCI-H226) was > 100 µM (inactive), the GI50 (HT-29) was 38.5 µM (inactive) and the GI50 (RXF 393) was 24.3 µM (inactive). For the same compound, the GI50 (RPMI-8226) was 21.7 µM (inactive), the GI50 (KM12) was 32.6 µM (inactive) and the GI50 (OVCAR-4) was 37.1 µM (inactive). The GI50 (CAKI-1) was > 100 µM (inactive), the GI50 (Hs-578T) was 35.1 µM (inactive) and the GI50 (K562) was 57.5 µM (inactive). For the same compound, the GI50 (SN12C) was 42.5 µM (inactive), the GI50 (CCRF-CEM) was 40.5 µM (inactive) and the GI50 (IGROV-1) was 50 µM (inactive). For the same compound, the GI50 (MDA-MB-435) was > 100 µM (inactive), the GI50 (Malme-3M) was 12.5 µM (inactive) and the GI50 (OVCAR-5) was > 100 µM (inactive). The GI50 (SK-OV-3) was 38.1 µM (inactive), the GI50 (HL-60) was 13.3 µM (inactive) and the GI50 (LOX IMVI) was 92.7 µM (inactive). For the same compound, the GI50 (UACC-257) was > 100 µM (inactive), the GI50 (MDA-MB-231) was > 100 µM (inactive) and the GI50 (SF-295) was 38.3 µM (inactive). The GI50 (NCI-H460) was 29.6 µM (inactive), the GI50 (M14) was 39.7 µM (inactive) and the GI50 (UO-31) was > 100 µM (inactive). The GI50 (SW-620) was > 100 µM (inactive), the GI50 (786-0) was 18.2 µM (inactive) and the GI50 (SK-MEL-5) was > 100 µM (inactive). For the same compound, the GI50 (SF-268) was 26.7 µM (inactive), the GI50 (A549) was 44.6 µM (inactive) and the GI50 (MDA-N) was 47.2 µM (inactive). The GI50 (PC-3) was 44.4 µM (inactive), the GI50 (HCT-116) was 60.7 µM (inactive) and the GI50 (COLO 205) was 66.1 µM (inactive). For the same compound, the GI50 (MCF7) was 16.5 µM (inactive), the GI50 (NCI-H23) was > 100 µM (inactive) and the GI50 (DU-145) was 97.5 µM (inactive).
`COc1cc(Oc2c(C)c(Cl)c(OC)c(Cl)c2OC)c2c(c1Cl)COC2=O` was tested, and the GI50 (T47D) was 9.73 µM (inactive), the GI50 (BT-549) was 43.6 µM (inactive) and the GI50 (NCI/ADR-RES) was 17.1 µM (inactive). The GI50 (TK-10) was 71.3 µM (inactive), the GI50 (HCT-15) was 13.9 µM and the GI50 (EKVX) was 22.3 µM (inactive). For the same compound, the GI50 (SNB-19) was 42.2 µM (inactive), the GI50 (HOP-92) was 54 µM (inactive) and the GI50 (UACC-62) was 33.7 µM (inactive). The GI50 (SK-MEL-28) was 62.2 µM (inactive), the GI50 (U-251) was 29.8 µM (inactive) and the GI50 (SNB-75) was 41.9 µM (inactive). The GI50 (MOLT-4) was 10 µM (inactive), the GI50 (NCI-H522) was 11.5 µM (inactive) and the GI50 (ACHN) was 12.9 µM (inactive). For the same compound, the GI50 (OVCAR-8) was 17.6 µM (inactive), the GI50 (NCI-H226) was 27.9 µM (inactive) and the GI50 (SF-539) was 31.5 µM (inactive). The GI50 (HT-29) was 9.23 µM (inactive), the GI50 (RXF 393) was 35.6 µM (inactive) and the GI50 (RPMI-8226) was 3.52 µM (inactive). The GI50 (KM12) was 20.9 µM (inactive), the GI50 (OVCAR-4) was 10.8 µM (inactive) and the GI50 (CAKI-1) was 10.4 µM (inactive). For the same compound, the GI50 (Hs-578T) was 54.7 µM (inactive), the GI50 (K562) was 2.32 µM (inactive) and the GI50 (SN12C) was 17.4 µM (inactive). For the same compound, the GI50 (CCRF-CEM) was 45.1 µM (inactive), the GI50 (A498) was 49.7 µM (inactive) and the GI50 (IGROV-1) was 17.6 µM (inactive). For the same compound, the GI50 (SR) was 3.85 µM (inactive), the GI50 (MDA-MB-435) was 31.3 µM (inactive) and the GI50 (HCC 2998) was 26.6 µM (inactive). The GI50 (Malme-3M) was 15.2 µM (inactive), the GI50 (OVCAR-5) was 47.1 µM (inactive) and the GI50 (SK-OV-3) was 41.5 µM (inactive). For the same compound, the GI50 (HL-60) was 7.78 µM (inactive), the GI50 (LOX IMVI) was 17 µM (inactive) and the GI50 (UACC-257) was 31.9 µM (inactive). The GI50 (MDA-MB-231) was 24.2 µM (inactive), the GI50 (SF-295) was 15.6 µM (inactive) and the GI50 (NCI-H460) was 10.7 µM (inactive). For the same compound, the GI50 (M14) was 27.7 µM (inactive), the GI50 (UO-31) was 10.8 µM (inactive) and the GI50 (SW-620) was 52 µM (inactive). The GI50 (786-0) was 17.1 µM (inactive), the GI50 (SK-MEL-5) was 12.2 µM (inactive) and the GI50 (SF-268) was 21.8 µM (inactive). The GI50 (A549) was 34.4 µM (inactive), the GI50 (MDA-N) was 14.3 µM (inactive) and the GI50 (HCT-116) was 6.34 µM (inactive). For the same compound, the GI50 (COLO 205) was 20.9 µM (inactive), the GI50 (MCF7) was 14.4 µM (inactive) and the GI50 (NCI-H23) was 18.6 µM (inactive). The GI50 (DU-145) was 52.6 µM (inactive).
